Legend:
Assay type in all cases: in vivo
[1] = tested on: Alopecurus myosuroides; experiment: Test Example 5: herbicidal effect by foliage application, plastic box (symbol J); settings: 320 g/ha, 3 weeks after application
Outline: (§1)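 Emulsion formulation, diluted with water to the intended rate, was applied uniformly to leaves by small sprayer. Recipients were 14-day greenhouse-grown seedlings (25° C. to 30° C.). Assessment followed at 3 weeks.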

[2] = tested on: Abutilon theophrasti; experiment: Test Example 5: herbicidal effect by foliage application, plastic box (symbol M); settings: 320 g/ha, 3 weeks after application
Outline: as §1

[3] = tested on: Galium spurium; experiment: Test Example 5: herbicidal effect by foliage application, plastic box (symbol Q); settings: 320 g/ha, 3 weeks after application
Outline: as §1

[4] = tested on: Setaria viridis; experiment: Test Example 5: herbicidal effect by foliage application, plastic box (symbol G); settings: 320 g/ha, 3 weeks after application
Outline: as §1

[5] = tested on: Amaranthus retroflexus; experiment: Test Example 5: herbicidal effect by foliage application, plastic box (symbol N); settings: 320 g/ha, 3 weeks after application
Outline: as §1

[6] = tested on: Echinochloa crus-galli var. crus-galli; experiment: Test Example 5: herbicidal effect by foliage application, plastic box (symbol H); settings: 320 g/ha, 3 weeks after application
Outline: as §1

[7] = tested on: rice plant; experiment: Test Example 5: effect on crop by foliage application, plastic box (symbol b); settings: 320 g/ha, 3 weeks after application
Outline: (§2)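 Diluvial soil, sterilized and boxed (21 × 13 × 7 cm), received spot-sown seed covered by about 1.5 cm soil; plants were then greenhouse-grown at 25–30° C.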

[8] = tested on: directly sowed rice plant; experiment: Test Example 3: effect on crop by foliage application, Wagner pot (symbol b); settings: application herbicide amount 320 g/ha
Outline: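 Steps: fill a 1/10000-are Wagner pot with alluvial soil; add water and mix to submerge at 0.1–0.5 cm depth; sow rice plus Echinochloa crus-galli var. crus-galli, Leptochloa chinensis and Cyperus difformis; grow in a 25–30 °C greenhouse.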

[9] = tested on: Lolium multiflorum Lam.; experiment: Test Example 5: herbicidal effect by foliage application, plastic box (symbol K); settings: 320 g/ha, 3 weeks after application
Outline: as §1

[10] = tested on: Avena fatua; experiment: Test Example 5: herbicidal effect by foliage application, plastic box (symbol I); settings: 320 g/ha, 3 weeks after application
Outline: as §1

[11] = tested on: Chenopodium album; experiment: Test Example 5: herbicidal effect by foliage application, plastic box (symbol O); settings: 320 g/ha, 3 weeks after application
Outline: as §1

[12] = tested on: beet; experiment: Test Example 5: effect on crop by foliage application, plastic box (symbol f); settings: 320 g/ha, 3 weeks after application
Outline: as §2

[13] = tested on: Veronica persica; experiment: Test Example 5: herbicidal effect by foliage application, plastic box (symbol R); settings: 320 g/ha, 3 weeks after application
Outline: as §1

[14] = tested on: transplanted rice plant; experiment: Test Example 1: effect on crop, application before weed generation in submerged conditions (symbol a); settings: application herbicide amount 320 g/ha
Description: (§3) Herbicidal Activity Test by Application Before Weed Generation in Submerged Conditions
After alluvial soil was placed into 1/10000 are of Wagner pot, water was poured and mixed to form a submerged condition having a water depth of 4 cm. Seeds of Echinochloa oryzacola Vasing., Scirpus juncoides, and Monochoria vaginalis were sowed in a mixed manner in the above pot and thereafter 2.5 leaf stage rice plant seedlings were transplanted thereto. […] The pot was placed in a greenhouse of 25° C. to 30° C. to grow plant. 3 weeks later from the herbicide application, the effect to each plant was investigated in accordance with the following criteria.
(§4) 5 Herbicidal ratio of 90% or more (almost completely withered)
(§5) 4 Herbicidal ratio of 70% or higher and lower than 90%
(§6) 3 Herbicidal ratio of 40% or higher and lower than 70%
(§7) 2 Herbicidal ratio of 20% or higher and lower than 40%
(§8) 1 Herbicidal ratio of 5% or higher and lower than 20%
(§9) 0 Herbicidal ratio of 5% or lower (almost no effect)

[15] = tested on: Echinochloa crus-galli var. crus-galli; experiment: Test Example 3: herbicidal effect by foliage application, Wagner pot (symbol H); settings: application herbicide amount 320 g/ha
Outline: (§10)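 Rating at 3 weeks post-spray, by defined criteria. Treatment: emulsion diluted with water to a predetermined amount, applied evenly to foliage of 14-day-old plants raised in alluvial soil flooded 0.1–0.5 cm deep at 25–30 °C, rice co-sown.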

[16] = tested on: Apera spica-venti; experiment: Test Example 5: herbicidal effect by foliage application, plastic box (symbol L); settings: 320 g/ha, 3 weeks after application
Outline: as §1

[17] = tested on: soybean; experiment: Test Example 5: effect on crop by foliage application, plastic box (symbol d); settings: 320 g/ha, 3 weeks after application
Outline: as §2

[18] = tested on: rapeseed; experiment: Test Example 5: effect on crop by foliage application, plastic box (symbol g); settings: 320 g/ha, 3 weeks after application
Outline: as §2

[19] = tested on: Stellaria media; experiment: Test Example 5: herbicidal effect by foliage application, plastic box (symbol P); settings: 320 g/ha, 3 weeks after application
Outline: as §1

[20] = tested on: Digitaria ciliaris; experiment: Test Example 5: herbicidal effect by foliage application, plastic box (symbol F); settings: 320 g/ha, 3 weeks after application
Outline: as §1

[21] = tested on: corn; experiment: Test Example 5: effect on crop by foliage application, plastic box (symbol c); settings: 320 g/ha, 3 weeks after application
Outline: as §2

[22] = tested on: Cyperus difformis; experiment: Test Example 3: herbicidal effect by foliage application, Wagner pot (symbol E); settings: application herbicide amount 320 g/ha
Outline: as §10

[23] = tested on: Monochoria vaginalis; experiment: Test Example 1: herbicidal activity, application before weed generation in submerged conditions (symbol C); settings: application herbicide amount 320 g/ha
Source text: as §3
(§11) After alluvial soil was placed into 1/10000 are of Wagner pot, water was poured and mixed to form a submerged condition having a water depth of 4 cm. Seeds of Echinochloa oryzacola Vasing., Scirpus juncoides, and Monochoria vaginalis were sowed in a mixed manner in the above pot and thereafter 2.5 leaf stage rice plant seedlings were transplanted thereto. On the day of sowing seeds, the emulsion agent of the compound of the present invention prepared in accordance with Formulation Example 2 was diluted with water so as to be a predetermined herbicide amount and the diluted emulsion agent was applied to the surface of the water. The pot was placed in a greenhouse of 25° C. to 30° C. to grow plant. 3 weeks later from the herbicide application, the effect to each plant was investigated in accordance with the following criteria.
as §4, §5, §6, §7, §8, §9

[24] = tested on: Leptochloa chinensis; experiment: Test Example 3: herbicidal effect by foliage application, Wagner pot (symbol D); settings: application herbicide amount 320 g/ha
Outline: as §10

[25] = tested on: wheat; experiment: Test Example 5: effect on crop by foliage application, plastic box (symbol e); settings: 320 g/ha, 3 weeks after application
Outline: as §2

[26] = tested on: Echinochloa oryzacola Vasing.; experiment: Test Example 1: herbicidal activity, application before weed generation in submerged conditions (symbol A); settings: application herbicide amount 320 g/ha
Source text: as §3, §11, §4, §5, §6, §7, §8, §9

[27] = tested on: Scirpus juncoides; experiment: Test Example 1: herbicidal activity, application before weed generation in submerged conditions (symbol B); settings: application herbicide amount 320 g/ha
Source text: as §3, §11, §4, §5, §6, §7, §8, §9

CC(CC1CC(OC(=O)N(C)C)=C(c2c(C)cc(-c3ccc(Cl)cc3)cc2C)C1=O)=NOCC(F)(F)F (mixture of isomers) [9-026]
J: Alopecurus myosuroides, herbicidal effect grade [1]: 0 (Herbicidal ratio of 5% or lower (almost no effect))
M: Abutilon theophrasti, herbicidal effect grade [2]: 0 (Herbicidal ratio of 5% or lower (almost no effect))
Q: Galium spurium, herbicidal effect grade [3]: 0 (Herbicidal ratio of 5% or lower (almost no effect))
G: Setaria viridis, herbicidal effect grade [4]: 4 (Herbicidal ratio of 70% or higher and lower than 90%)
N: Amaranthus retroflexus, herbicidal effect grade [5]: 0 (Herbicidal ratio of 5% or lower (almost no effect))
H: Echinochloa crus-galli var. crus-galli, herbicidal effect grade [6]: 0 (Herbicidal ratio of 5% or lower (almost no effect))
b: directly sowed rice plant, effect on crop grade [7]: 0 (Herbicidal ratio of 5% or lower (almost no effect))
b (directly sowed rice plant) effect on crop grade ([8]; Table 24): 0 (Herbicidal ratio of 5% or lower (almost no effect))
K: Lolium multiflorum Lam., herbicidal effect grade [9]: 0 (Herbicidal ratio of 5% or lower (almost no effect))
I: Avena fatua, herbicidal effect grade [10]: 3 (Herbicidal ratio of 40% or higher and lower than 70%)
O: Chenopodium album, herbicidal effect grade [11]: 0 (Herbicidal ratio of 5% or lower (almost no effect))
f: beet, effect on crop grade [12]: 0 (Herbicidal ratio of 5% or lower (almost no effect))
R: Veronica persica, herbicidal effect grade [13]: 0 (Herbicidal ratio of 5% or lower (almost no effect))
a (transplanted rice plant) effect on crop grade [14]: 0 (Herbicidal ratio of 5% or lower (almost no effect))
H (Echinochloa crus-galli var. crus-galli) herbicidal effect grade ([15]; Table 24): 0 (Herbicidal ratio of 5% or lower (almost no effect))
L: Apera spica-venti, herbicidal effect grade [16]: 0 (Herbicidal ratio of 5% or lower (almost no effect))
d: soybean, effect on crop grade [17]: 0 (Herbicidal ratio of 5% or lower (almost no effect))
g: rapeseed, effect on crop grade [18]: 0 (Herbicidal ratio of 5% or lower (almost no effect))
P: Stellaria media, herbicidal effect grade [19]: 0 (Herbicidal ratio of 5% or lower (almost no effect))
F: Digitaria ciliaris, herbicidal effect grade [20]: 5 (Herbicidal ratio of 90% or more (almost completely withered))
c: corn, effect on crop grade [21]: 5 (Herbicidal ratio of 90% or more (almost completely withered))
E herbicidal effect grade ([22]; Table 24): 0 (Herbicidal ratio of 5% or lower (almost no effect))
C (Monochoria vaginalis) herbicidal effect grade [23]: 0 (Herbicidal ratio of 5% or lower (almost no effect))
D (Leptochloa chinensis) herbicidal effect grade ([24]; Table 24): 3 (Herbicidal ratio of 40% or higher and lower than 70%)
e: wheat, effect on crop grade [25]: 0 (Herbicidal ratio of 5% or lower (almost no effect))
A (Echinochloa oryzacola Vasing.) herbicidal effect grade [26]: 4 (Herbicidal ratio of 70% or higher and lower than 90%)
B (Scirpus juncoides) herbicidal effect grade [27]: 0 (Herbicidal ratio of 5% or lower (almost no effect))

COCCOc1cc(C)c(C2=C(O)CC(CC(C)=NOC)C2=O)c(C)c1 (stereo not drawn) [6-098]
J: Alopecurus myosuroides, herbicidal effect (criteria of Test Example 1) [1]: 3 (Herbicidal ratio of 40% or higher and lower than 70%)
M: Abutilon theophrasti, herbicidal effect (criteria of Test Example 1) [2]: 0 (Herbicidal ratio of 5% or lower (almost no effect))
Q: Galium spurium, herbicidal effect (criteria of Test Example 1) [3]: 0 (Herbicidal ratio of 5% or lower (almost no effect))
G: Setaria viridis, herbicidal effect (criteria of Test Example 1) [4]: 3 (Herbicidal ratio of 40% or higher and lower than 70%)
N: Amaranthus retroflexus, herbicidal effect (criteria of Test Example 1) [5]: 0 (Herbicidal ratio of 5% or lower (almost no effect))
H: Echinochloa crus-galli var. crus-galli, herbicidal effect (criteria of Test Example 1) [6]: 2 (Herbicidal ratio of 20% or higher and lower than 40%)
b: directly sowed rice plant, effect on crop (criteria of Test Example 1) [7]: 2 (Herbicidal ratio of 20% or higher and lower than 40%)
effect on crop b (directly sowed rice plant), grade 0-5 [8]: 5 (Herbicidal ratio of 90% or more (almost completely withered))
K: Lolium multiflorum Lam., herbicidal effect (criteria of Test Example 1) [9]: 5 (Herbicidal ratio of 90% or more (almost completely withered))
I: Avena fatua, herbicidal effect (criteria of Test Example 1) [10]: 1 (Herbicidal ratio of 5% or higher and lower than 20%)
O: Chenopodium album, herbicidal effect (criteria of Test Example 1) [11]: 0 (Herbicidal ratio of 5% or lower (almost no effect))
f: beet, effect on crop (criteria of Test Example 1) [12]: 0 (Herbicidal ratio of 5% or lower (almost no effect))
R: Veronica persica, herbicidal effect (criteria of Test Example 1) [13]: 0 (Herbicidal ratio of 5% or lower (almost no effect))
Effect grade on crop, a: transplanted rice plant [14]: 1 (Herbicidal ratio of 5% or higher and lower than 20%)
herbicidal effect on H (Echinochloa crus-galli var. crus-galli), grade 0-5 [15]: 3 (Herbicidal ratio of 40% or higher and lower than 70%)
L: Apera spica-venti, herbicidal effect (criteria of Test Example 1) [16]: 4 (Herbicidal ratio of 70% or higher and lower than 90%)
d: soybean, effect on crop (criteria of Test Example 1) [17]: 0 (Herbicidal ratio of 5% or lower (almost no effect))
g: rapeseed, effect on crop (criteria of Test Example 1) [18]: 0 (Herbicidal ratio of 5% or lower (almost no effect))
P: Stellaria media, herbicidal effect (criteria of Test Example 1) [19]: 0 (Herbicidal ratio of 5% or lower (almost no effect))
F: Digitaria ciliaris, herbicidal effect (criteria of Test Example 1) [20]: 3 (Herbicidal ratio of 40% or higher and lower than 70%)
c: corn, effect on crop (criteria of Test Example 1) [21]: 1 (Herbicidal ratio of 5% or higher and lower than 20%)
herbicidal effect on E, grade 0-5 [22]: 4 (Herbicidal ratio of 70% or higher and lower than 90%)
Herbicidal effect grade, C: Monochoria vaginalis [23]: 0 (Herbicidal ratio of 5% or lower (almost no effect))
herbicidal effect on D (Leptochloa chinensis), grade 0-5 [24]: 5 (Herbicidal ratio of 90% or more (almost completely withered))
e: wheat, effect on crop (criteria of Test Example 1) [25]: 2 (Herbicidal ratio of 20% or higher and lower than 40%)
Herbicidal effect grade, A: Echinochloa oryzacola Vasing. [26]: 0 (Herbicidal ratio of 5% or lower (almost no effect))
Herbicidal effect grade, B: Scirpus juncoides [27]: 1 (Herbicidal ratio of 5% or higher and lower than 20%)
